From patent US20240247069A1, “FGFR3 BINDING MOLECULES AND METHODS OF USE THEREOF” (Regeneron Pharmaceuticals, Inc., priority 2023, published 2024)

Experiments:
Assay type in all cases: cell-based
Conditions in all cases: FGF1/heparin, 72 hours
[1] = tested on: BaF3 cells expressing FGFR3 V557L; assay: BaF3 cell proliferation, FGFR3 V557L
From the text: (§1) cDNA expressing FGFR3 mutants (S249C, S248C, Y375C, V555M, V555L, S249C+V555M, or S249C+V555L) were synthesized and cloned into pLVX Lenti-viral vector (Thermo Fisher). Viral particles were generated by lipofectamine transfection of LentiX 293T cells using Lenti-X packaging single shots following manufacturer's protocol (Clontech/Takara) and concentrated using Lenti-X concentrator and titer determined using Lenti-X p24 rapid titer kit (Clontech/Takara). BaF3 cells were transduced with virus at ˜0.3 MOI.
(§2) For cell proliferation assays, engineered BaF3/hFGFR3 cells grown in complete medium were washed and plated in IL-3-free culture media±5 μg/ml heparin and 1 nM human FGF1. Cells were plated out at 1×10^5 cells/well into 96-well plates, followed by the addition of 1:3 serially diluted antibodies as indicated in figures. After addition of antibodies, cells were incubated at 37° C. for 72 h followed by the addition of CellTiter-Glo™ (Promega) reagent. The luminescent signal was detected by Envision plate reader (PerkinElmer). Data was analyzed using Prism software (GraphPad). […]

[2] = tested on: BaF3 cells expressing FGFR3 V557M; assay: BaF3 cell proliferation, FGFR3 V557M
From the text: as §1, §2

[3] = tested on: BaF3 cells expressing FGFR3 S249C+V557M; assay: BaF3 cell proliferation, FGFR3 S249C+V557M
From the text: as §1, §2

[4] = tested on: BaF3 cells expressing FGFR3 S249C+V557L; assay: BaF3 cell proliferation, FGFR3 S249C+V557L
From the text: as §1, §2

AZD4547 [reference compound]
ineffective: effect on growth of BaF3 cells expressing FGFR3 V557L [1] | effect on growth of BaF3 cells expressing FGFR3 V557M [2] | effect on growth of BaF3 cells expressing FGFR3 S249C+V557M [3] | effect on growth of BaF3 cells expressing FGFR3 S249C+V557L [4]
